Kd data for 5 compounds are collected here from US20260116920A1, “HUMAN TRANSFERRIN RECEPTOR BINDING PEPTIDE” (PEPTIDREAM INC., priority 2021, published 2026).

The structures appear in SMILES notation. Positions of bridges follow the written chain, without caps; N, C: chain ends. Non-standard residues stand in square brackets, D forms with d. Residues, ends and D or L forms follow the SMILES beside them. Trp(1-CH2COOH) = N[C@@H](Cc1cn(CC(=O)O)c2ccccc12)C(=O)O; NMePhe(3-Cl) = CN[C@@H](Cc1cccc(Cl)c1)C(=O)O; 3Pal(6-NH2) = Nc1ccc(C[C@H](N)C(=O)O)cn1; NMeY = CN[C@@H](Cc1ccc(O)cc1)C(=O)O; 3Pal = N[C@@H](Cc1cccnc1)C(=O)O; 4Pal = N[C@@H](Cc1ccncc1)C(=O)O; PEG4 = NCCOCCOCCOCCOCCC(=O)O

In the assay the target is T1, human transferrin receptor (hTfR) (Homo sapiens, UniProt P02786).
T1 construct: made in house
T1 sequence (P02786 89-760 limits assumed): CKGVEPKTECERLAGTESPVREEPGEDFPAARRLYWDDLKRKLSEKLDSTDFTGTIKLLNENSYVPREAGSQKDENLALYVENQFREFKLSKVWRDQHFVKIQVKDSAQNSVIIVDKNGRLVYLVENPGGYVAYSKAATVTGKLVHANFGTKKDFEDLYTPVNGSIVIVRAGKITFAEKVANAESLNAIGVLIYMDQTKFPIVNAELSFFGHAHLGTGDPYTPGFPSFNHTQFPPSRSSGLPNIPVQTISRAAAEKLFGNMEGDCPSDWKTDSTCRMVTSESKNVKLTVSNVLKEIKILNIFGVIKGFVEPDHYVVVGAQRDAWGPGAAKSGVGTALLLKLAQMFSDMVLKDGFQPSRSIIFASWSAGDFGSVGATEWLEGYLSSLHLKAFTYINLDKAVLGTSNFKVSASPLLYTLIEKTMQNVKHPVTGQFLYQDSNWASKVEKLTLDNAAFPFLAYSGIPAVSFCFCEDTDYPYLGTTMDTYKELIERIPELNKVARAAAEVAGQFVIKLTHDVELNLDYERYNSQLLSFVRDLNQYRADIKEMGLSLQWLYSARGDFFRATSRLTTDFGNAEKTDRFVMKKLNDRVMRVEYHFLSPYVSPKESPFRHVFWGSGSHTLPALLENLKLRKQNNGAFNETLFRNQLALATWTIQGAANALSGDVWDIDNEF
Briefly: Evaluation of molecular interaction between transferrin receptor (hTfR) and peptide using surface plasmon resonance (SPR). The assay is classed as binding. Conditions: surface plasmon resonance, binding to hTfR; KD class symbol; read-out: SPR (KD value). An outline of the steps:
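Single-cycle SPR kinetics, KD by least-squares sensorgram fitting, with peptide series of 100, 50, 25, 10 and 5 nM. Running buffer: 10 mM HEPES pH 8.0, 150 mM NaCl, 0.05% Tween 20, 0.1% BSA, 1.0% DMSO. Surface: hTfR dimer covalently coupled (EDC/NHS) onto Ni-NTA chip.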
In the case of `CC[C@H](C)[C@@H]1NC(=O)[C@H](Cc2cccnc2)NC(=O)[C@H](Cc2ccc(O)cc2)NC(=O)[C@H](CC(N)=O)NC(=O)[C@H](Cc2cn(CC(=O)O)c3ccccc23)NC(=O)[C@H](C(C)C)NC(=O)[C@H](Cc2cccc(Cl)c2)N(C)C(=O)[C@H](C(C)C)NC(=O)[C@H](C)NC(=O)CSC[C@@H](C(=O)NCCOCCOCCOCCOCCC(N)=O)NC(=O)[C@H](Cc2ccc(O)cc2)N(C)C(=O)[C@H](Cc2ccncc2)NC(=O)[C@H](CCCNC(=N)N)NC(=O)[C@H](CCCNC(=N)N)NC(=O)[C@H]([C@@H](C)CC)NC1=O` [compound 48] ({CH2CO}-AV[NMePhe(3-Cl)]V[Trp(1-CH2COOH)]NY[3Pal]IIRR[4Pal][NMeY]C[PEG4]-NH2; thioether N-15), the Kd fell in the range of 1 to 100 nM.
`CC[C@H](C)[C@@H]1NC(=O)[C@H](Cc2cccnc2)NC(=O)[C@H](Cc2ccc(N)nc2)NC(=O)[C@H](CC(N)=O)NC(=O)[C@H](Cc2cn(CC(=O)O)c3ccccc23)NC(=O)[C@H](C(C)C)NC(=O)[C@H](Cc2cccc(Cl)c2)N(C)C(=O)[C@H](C(C)C)NC(=O)[C@H](C)NC(=O)CSC[C@@H](C(=O)NCCOCCOCCOCCOCCC(N)=O)NC(=O)[C@H](Cc2ccc(O)cc2)N(C)C(=O)[C@H](Cc2ccncc2)NC(=O)[C@H](CCCNC(=N)N)NC(=O)[C@H](CCCNC(=N)N)NC(=O)[C@H]([C@@H](C)CC)NC1=O` [compound 49] ({CH2CO}-AV[NMePhe(3-Cl)]V[Trp(1-CH2COOH)]N[3Pal(6-NH2)][3Pal]IIRR[4Pal][NMeY]C[PEG4]-NH2; thioether N-15): the dissociation constant Kd was 1 to 100 nM.
As to `CC[C@H](C)[C@@H]1NC(=O)[C@H](Cc2ccc(OC)cc2)NC(=O)[C@H](Cc2ccc(N)nc2)NC(=O)[C@H](CC(N)=O)NC(=O)[C@H](Cc2cn(CC(=O)O)c3ccccc23)NC(=O)[C@H](C(C)C)NC(=O)[C@H](Cc2cccc(Cl)c2)N(C)C(=O)[C@H](C(C)C)NC(=O)[C@H](C)NC(=O)CSC[C@@H](C(=O)NCCOCCOCCOCCOCCC(N)=O)NC(=O)[C@H](Cc2ccc(O)cc2)N(C)C(=O)[C@H](Cc2ccncc2)NC(=O)[C@H](CCCNC(=N)N)NC(=O)[C@H](CCCNC(=N)N)NC(=O)[C@H]([C@@H](C)CC)NC1=O` [compound 50], the Kd lay within 1 to 100 nM.
For the compound `CC[C@H](C)[C@@H]1NC(=O)[C@H](Cc2cccnc2)NC(=O)[C@H](Cc2ccc(O)cc2)NC(=O)[C@H](CC(N)=O)NC(=O)[C@H](Cc2c[nH]c3ccccc23)NC(=O)[C@H](C(C)C)NC(=O)[C@H](Cc2cccc(Cl)c2)N(C)C(=O)[C@H](C(C)C)NC(=O)[C@H](C)NC(=O)CSC[C@@H](C(=O)NCCOCCOCCOCCOCCC(N)=O)NC(=O)[C@H](Cc2ccc(O)cc2)N(C)C(=O)[C@H](Cc2ccncc2)NC(=O)[C@H](CCCNC(=N)N)NC(=O)[C@H](CCCNC(=N)N)NC(=O)[C@H]([C@@H](C)CC)NC1=O` [compound 51] ({CH2CO}-AV[NMePhe(3-Cl)]VWNY[3Pal]IIRR[4Pal][NMeY]C[PEG4]-NH2; thioether N-15), the dissociation constant Kd was 1 to 100 nM.
`CC[C@H](C)[C@@H]1NC(=O)[C@H](Cc2cccnc2)NC(=O)[C@H](Cc2ccc(N)nc2)NC(=O)[C@H](CC(N)=O)NC(=O)[C@H](Cc2c[nH]c3ccccc23)NC(=O)[C@H](C(C)C)NC(=O)[C@H](Cc2cccc(Cl)c2)N(C)C(=O)[C@H](C(C)C)NC(=O)[C@H](C)NC(=O)CSC[C@@H](C(=O)NCCOCCOCCOCCOCCC(N)=O)NC(=O)[C@H](Cc2ccc(O)cc2)N(C)C(=O)[C@H](Cc2ccncc2)NC(=O)[C@H](CCCNC(=N)N)NC(=O)[C@H](CCCNC(=N)N)NC(=O)[C@H]([C@@H](C)CC)NC1=O` [compound 52] ({CH2CO}-AV[NMePhe(3-Cl)]VWN[3Pal(6-NH2)][3Pal]IIRR[4Pal][NMeY]C[PEG4]-NH2; thioether N-15): the Kd is 1 to 100 nM.
